Columns and labels:
[1] = cited from earlier work
[2] = tested on: gram positive and gram negative, aerobic, and anaerobic bacteria; conditions: in vivo or in vitro; cited from earlier work
CXCR4 [3] = test: CXCR4 protein expression, Western blot of whole-cell extracts of gastric cancer cells; format: cell-based; conditions: 6 h, line not given
CXCR4 mRNA = CXCR4 mRNA expression by RT-PCR in AGS cells; format: cell-based; conditions: 5 μm
Procedure: (§1) (A) MDA-MB-231 (2×10^5 cells) were seeded in the top-chamber of the Matrigel. After pre-incubation with or without the composition according to Ex. 6 and its major active components (5 μm) for 6 h, transwell chambers were then placed into the wells of a 24-well plate, in which we had added either the basal medium only or basal medium containing 10 ng/ml CXCL12 for 24 h. After incubation, they were assessed for cell invasion. Columns indicate mean percentage of invaded cells; bars, S.E. *, P>0.05. (B) AGS (2×10^5 cells) were seeded in the top-chamber of the Matrigel. After preincubation with or without the composition and its major active components (5 μm) for 6 h, transwell chambers were then placed into the wells of a 24-well plate, in which we had added either the basal medium only or basal medium containing 100 ng/ml CXCL12 for 24 h. After incubation, the chambers were assessed for cell invasion. Columns indicate mean percentage of invaded cells; bars, S.E. *, P>0.05. Representative results of three independent experiments are shown. […] AGS cells were treated with 5 μm of the composition and its major active components for indicated times. Total RNA was isolated and analyzed by RT-PCR assay. […] Representative results of three independent experiments are shown. […] Cells were incubated with 5 μm of the active ingredients of the composition and its single major active components for indicated times. Whole-cell extracts were prepared and analyzed by Western blot analysis using antibodies against CXCR4. The same blots were stripped and reprobed with β-actin antibody to show equal protein loading. Representative results of three independent experiments are shown.

CXCR4 [4] = test: CXCR4 protein expression, Western blot of whole-cell extracts of gastric cancer cells; format: cell-based; conditions: 5.0 μm, 6 h, line not given
Procedure: Different tumor cell types, namely gastric cancer (AGS, MKN45, and SNU16) cells were incubated with different components of the composition as well as a combination according to the finished product for 6 h. Whole-cell extracts were prepared and analyzed by Western blot analysis using antibody against CXCR4. The same blots were stripped and reprobed with β-actin antibody to show equal protein loading. Representative results of three independent experiments are shown.
The same experiment was carried out to find out whether the composition downregulates expression of CXCR4 in gastric (AGS, MKN45, and SNU16) cancer cell lines, which has never been investigated before. Cells were treated with 5 μm active ingredients of Ex. 6 and its major active components for 6 h before assessing the resultant effect on CXCR4 expression.
(A) MDA-MB-231 (2×10^5 cells) were seeded in the top-chamber of the Matrigel. After pre-incubation with or without the composition according to Ex. 6 and its major active components (5 μm) for 6 h, transwell chambers were then placed into the wells of a 24-well plate, in which we had added either the basal medium only or basal medium containing 10 ng/ml CXCL12 for 24 h. After incubation, they were assessed for cell invasion. Columns indicate mean percentage of invaded cells; bars, S.E. *, […]. (B) AGS (2×10^5 cells) were seeded in the top-chamber of the Matrigel. After preincubation with or without the composition and its major active components (5 μm) for 6 h, transwell chambers were then placed into the wells of a 24-well plate, in which we had added either the basal medium only or basal medium containing […] CXCL12 for 24 h. After incubation, the chambers were assessed for cell invasion. Columns indicate mean percentage of invaded cells; bars, S.E. *, […]. Representative results of three independent experiments are shown. […] Total RNA was isolated and analyzed by RT-PCR assay. […] Whole-cell extracts were prepared and analyzed by Western blot analysis using antibodies against CXCR4. […]

AGS cells = test: Matrigel transwell invasion assay with CXCL12, AGS; format: cell-based; conditions: 5 μm, cell line not given
Procedure: as §1, with “[…],” for “After preincubation with or without the composition and its major active components (5 μm) for 6 h,”, “which we had added either the basal medium only or basal medium containing 100 ng/ml CXCL12 for 24 h.” left out

Row | SMILES | cumulative dose shown safe and well tolerated ([1]; cumulative doses) [g] | systemic dose shown safe and well tolerated ([1]; systemic doses) | Resistance (in words) [2] | Fold change (CXCR4 expression) (CXCR4 [3]; 0.5 μm) | Fold change (CXCR4 expression) (CXCR4 [3]; 1.0 μm) | Fold change (CXCR4 expression) (CXCR4 [3]; 2.5 μm) | mRNA fold change (CXCR4) (CXCR4 mRNA; time 0 hours) | mRNA fold change (CXCR4) (CXCR4 mRNA; time 2 hours) | mRNA fold change (CXCR4) (CXCR4 mRNA; time 6 hours) | mRNA fold change (CXCR4) (CXCR4 mRNA; time 8 hours) | mRNA fold change (CXCR4) (CXCR4 mRNA; time 12 hours) | mRNA fold change (CXCR4) (CXCR4 mRNA; time 24 hours) | Fold change (CXCR4 expression) (CXCR4 [4]) | Percentage of invade cells (AGS cells; time 0 hours) [%] | Percentage of invade cells (AGS cells; time 2 hours) [%] | Percentage of invade cells (AGS cells; time 6 hours) [%] | Percentage of invade cells (AGS cells; time 8 hours) [%] | Percentage of invade cells (AGS cells; time 12 hours) [%] | Percentage of invade cells (AGS cells; time 24 hours) [%]
1 | O=S1(=O)CCN(CN2CCS(=O)(=O)NC2)CN1 [Taurolidine, [bis(1,1-dioxoperhydro-1,2,4-thiadiazinyl-4)]-methane] | ≥ 300 | exceeding 40 g/day | has not been observed | – | – | – | – | – | – | – | – | – | – | – | – | – | – | – | –
2 | COc1ccc2[nH]c([S+]([O-])Cc3ncc(C)c(OC)c3C)nc2c1 (stereo not drawn) [PPI, Omeprazol] | – | – | – | 1.4 ± 0.02 | 0.96 ± 0.03 | 0.81 ± 0.05 | 0.92 ± 0.02 | 0.88 ± 0.021 | 0.67 ± 0.06 | 0.54 ± 0.04 | 0.41 ± 0.04 | 0.38 ± 0.04 | 0.46 ± 0.02 | 85.23 ± 11.51 | 82.10 ± 15.10 | 74.11 ± 6.25 | 60.12 ± 11.50 | 49.25 ± 7.26 | 39.25 ± 4.15
3 | CCS(=O)(=O)CCn1c([N+](=O)[O-])cnc1C [TND, tinidazole] | – | – | – | 1.4 ± 0.01 | 0.98 ± 0.01 | 0.85 ± 0.01 | 0.94 ± 0.02 | 0.83 ± 0.01 | 0.79 ± 0.04 | 0.65 ± 0.03 | 0.51 ± 0.03 | 0.39 ± 0.03 | 0.53 ± 0.03 | 85.23 ± 11.51 | 81.10 ± 14.20 | 72.55 ± 8.10 | 64.65 ± 10.11 | 51.33 ± 8.20 | 42.25 ± 8.55
4 | CC[C@H]1OC(=O)[C@H](C)[C@@H](O[C@H]2C[C@@](C)(OC)[C@@H](O)[C@H](C)O2)[C@H](C)[C@@H](O[C@@H]2O[C@H](C)C[C@H](N(C)C)[C@H]2O)[C@](C)(OC)C[C@@H](C)C(=O)[C@H](C)[C@@H](O)[C@]1(C)O [CLR, clarithromycin] | – | – | – | 1.3 ± 0.01 | 0.97 ± 0.01 | 0.79 ± 0.04 | 0.90 ± 0.05 | 0.78 ± 0.02 | 0.63 ± 0.03 | 0.50 ± 0.03 | 0.42 ± 0.03 | 0.37 ± 0.03 | 0.44 ± 0.01 | 85.23 ± 11.51 | 80.22 ± 10.25 | 77.26 ± 9.14 | 62.27 ± 6.50 | 55.20 ± 7.10 | 48.20 ± 6.15

From patent US20140154317A1, “Pharmaceutical Composition for Treatment of Helicobacter Pylori Associated Diseases” (priority 2012, published 2014)
